These results are taken from patent publication US9586958B2, “Prodrug derivatives of substituted triazolopyridines” (BAYER PHARMA AKTIENGESELLSCHAFT, priority 2013, dated 2017).

Like-named read-outs stand apart in the source and are kept apart here.

Data set [1] relates to HeLa human cervical tumor cells. Briefly: Proliferation assay, HeLa cells (crystal violet). The class given is cell-based. As to the method: (§1) Cultivated tumor cells (MCF7, hormone dependent human mammary carcinoma cells, ATCC HTB22; NCI-H460, human non-small cell lung carcinoma cells, ATCC HTB-177; DU 145, hormone-independent human prostate carcinoma cells, ATCC HTB-81; HeLa-MaTu, human cervical carcinoma cells, EPO-GmbH, Berlin; HeLa-MaTu-ADR, multidrug-resistant human cervical carcinoma cells, EPO-GmbH, Berlin; HeLa human cervical tumor cells, ATCC CCL-2; B16F10 mouse melanoma cells, ATCC CRL-6475) were plated at a density of 5000 cells/well (MCF7, DU145, HeLa-MaTu-ADR), 3000 cells/well (NCI-H460, HeLa-MaTu, HeLa), or 1000 cells/well (B16F10) in a 96-well multititer plate in 200 μl of their respective growth medium supplemented 10% fetal calf serum. After 24 hours, the cells of one plate (zero-point plate) were stained with crystal violet (see below), while the medium of the other plates was replaced by fresh culture medium (200 μl), to which the test substances were added in various concentrations (0 μM, as well as in the range of 0.01-30 μM; the final concentration of the solvent dimethyl sulfoxide was 0.5%). The cells were incubated for 4 days in the presence of test substances. Cell proliferation was determined by staining the cells with crystal violet: the cells were fixed by adding 20 μl/measuring point of an 11% glutaric aldehyde solution for 15 minutes at room temperature. After three washing cycles of the fixed cells with water, the plates were dried at room temperature. The cells were stained by adding 100 μl/measuring point of a 0.1% crystal violet solution (pH 3.0). After three washing cycles of the stained cells with water, the plates were dried at room temperature. The dye was dissolved by adding 100 μl/measuring point of a 10% acetic acid solution. The extinction was determined by photometry at a wavelength of 595 nm. The change of cell number, in percent, was calculated by normalization of the measured values to the extinction values of the zero-point plate (=0%) and the extinction of the untreated (0 μm) cells (=100%). The IC50 values were determined by means of a 4 parameter fit.

The test system of data set [2] is HeLa-MaTu-ADR, multidrug-resistant human cervical carcinoma cells. Briefly: Proliferation assay, HeLa-MaTu-ADR cells (crystal violet). It counts as cell-based. Particulars: read-out: IC50 determined in a HeLa-MaTu-ADR cell proliferation assay. As to the method:
as §1

Data set [3] in a line: Metabolic stability in vitro, dog liver microsomes (calculation of Fmax). It counts as in vitro ADME. The protocol: (§2) The metabolic stability of test compounds in vitro was determined by incubating them at 1 μM with a suspension liver microsomes in 100 mM phosphate buffer, pH7.4 (NaH2PO4×H2O+Na2HPO4×2H2O) at a protein concentration of 0.5 mg/mL and at 37° C. The reaction was activated by adding a co-factor mix containing 1.2 mg NADP, 3 IU glucose-6-phosphate dehydrogenase, 14.6 mg glucose-6-phosphate and 4.9 mg MgCl2 in phosphate buffer, pH 7.4. Organic solvent in the incubations was limited to <0.2% dimethylsulfoxide (DMSO) and <1% methanol. During incubation, the microsomal suspensions were continuously shaken and aliquots were taken at 2, 8, 16, 30, 45 and 60 min, to which equal volumes of cold methanol were immediately added. Samples were frozen at −20° C. over night, subsequently centrifuged for 15 minutes at 3000 rpm and the supernatant was analyzed with an Agilent 1200 HPLC-system with LCMS/MS detection.
(§3) The half-life of a test compound was determined from the concentration-time plot. From the half-life the intrinsic clearances were calculated. Together with the additional parameters liver blood flow, specific liver weight and microsomal protein content the hepatic in vivo blood clearance (CL) and the maximal oral bioavailability (Fmax) were calculated for the different species. The following parameter values were used: Liver blood flow—1.3 L/h/kg (human), 2.1 L/h/kg (dog), 4.2 L/h/kg (rat); specific liver weight—21 g/kg (human), 39 g/kg (dog), 32 g/kg (rat); microsomal protein content—40 mg/g.
(§4) With the described assay only phase-I metabolism of microsomes is reflected, e.g. typically oxidoreductive reactions by cytochrome P450 enzymes and flavin mono-oxygenases (FMO) and hydrolytic reactions by esterases (esters and amides).

The nature of data set [4]: Metabolic stability in vitro, rat liver microsomes (calculation of Fmax). The class given is in vitro ADME. As to the method:
as §2, §3, §4

A short description of data set [5]: Metabolic stability in vitro, human liver microsomes (calculation of Fmax). The class given is in vitro ADME. Particulars: for Human liver microsomes; Fmax [%]: 1 μM; for calculated maximal oral bioavailability (Fmax) at 1 μM: pH 7.4, determined by means of human liver microsomes, read-out: maximum oral bioavailability (Fmax) in human. The protocol:
as §2, §3, §4

Data set [6] has as its target T1, human kinase Mps-1 (Homo sapiens, UniProt P33981).
T1 construct: N-terminally GST-tagged human full length recombinant Mps-1 kinase; GST (N); purchased Invitrogen, Karslruhe, Germany PV4071
T1 sequence (P33981 1-857): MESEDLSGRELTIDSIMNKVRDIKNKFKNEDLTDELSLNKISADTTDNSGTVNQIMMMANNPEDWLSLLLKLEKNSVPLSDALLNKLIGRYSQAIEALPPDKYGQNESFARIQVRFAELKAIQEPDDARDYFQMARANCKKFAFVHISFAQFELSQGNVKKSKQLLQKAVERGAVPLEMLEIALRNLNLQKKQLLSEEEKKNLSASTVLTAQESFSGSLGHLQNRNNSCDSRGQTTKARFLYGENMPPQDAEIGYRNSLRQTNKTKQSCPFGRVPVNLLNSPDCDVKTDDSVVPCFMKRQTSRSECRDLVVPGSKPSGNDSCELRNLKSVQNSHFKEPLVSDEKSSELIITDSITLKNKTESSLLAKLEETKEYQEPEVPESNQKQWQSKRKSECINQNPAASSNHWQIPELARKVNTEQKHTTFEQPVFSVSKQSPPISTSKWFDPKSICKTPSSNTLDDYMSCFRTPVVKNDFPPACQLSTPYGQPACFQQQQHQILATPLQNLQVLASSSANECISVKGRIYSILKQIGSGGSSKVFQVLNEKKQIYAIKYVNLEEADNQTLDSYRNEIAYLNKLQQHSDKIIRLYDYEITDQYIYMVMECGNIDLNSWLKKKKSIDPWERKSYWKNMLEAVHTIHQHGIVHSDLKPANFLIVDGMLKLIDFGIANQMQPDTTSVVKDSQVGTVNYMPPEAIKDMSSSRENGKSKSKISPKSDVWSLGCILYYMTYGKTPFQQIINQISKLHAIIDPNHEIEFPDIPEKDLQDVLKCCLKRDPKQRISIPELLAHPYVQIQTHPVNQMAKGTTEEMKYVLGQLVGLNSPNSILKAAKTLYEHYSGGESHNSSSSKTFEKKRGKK
Briefly: Mps-1 kinase assay (TR-FRET) with 10 μM ATP. It counts as biochemical. A general note: TR-FRET usually uses a lanthanide donor and a delayed reading to cut background.

Data set [7] has as its target T1, human kinase Mps-1. Briefly: Mps-1 kinase assay (TR-FRET) with 2 mM ATP. It counts as biochemical.
Where [8] appears, read: 96 h, HeLa cells, 4 days, read-out: Inhibition of cell proliferation, cell Line: HeLa IC50.
The mark [9] stands for this setting: HeLa, comparison table with comparative examples, read-out: Inhibition of cell proli-feration, cell line: HeLa, IC50.
Setting [10] is: HeLa, read-out: IC50 in a HeLa cell proliferation assay.
Where [11] appears, read: comparison table with comparative examples.
[12] abbreviates: IC50 in an Mps-1 kinase assay with a concentration of 10 μM ATP.
Setting [13] is: Mps-1 Inhibition, IC50 (Assay with 10 μM ATP), comparison table with comparative examples.
The mark [14] stands for this setting: Mps-1 Inhibition, IC50 in M (Assay with 10 μM ATP).
The mark [15] stands for this setting: IC50 in an Mps-1 kinase assay with a concentration of 2 mM ATP.
Setting [16] is: Mps-1 Inhibition, IC50 in M (Assay with 2 mM ATP).

For the compound `C[C@@H](C(=O)Nc1ccc(-c2ccc3nc(Nc4ccc(S(C)(=O)=O)cc4OCC(F)(F)F)nn3c2)cc1)c1ccc(F)cc1` [Compound A2, (2R)-2-(4-fluorophenyl)-N-[4-(2-{[4-(methylsulfonyl)-2-(2,2,2-trifluoro-ethoxy)phenyl]amino}[1,2,4]triazolo[1,5-α]pyridin-6-yl)phenyl]-propanamide], the IC50 was below 200 nM in data set [1] (setting [8]); below 200 nM in data set [1] (setting [9]); below 400 nM in data set [1] (setting [10]); below 10000 nM in data set [2]; at most 1 nM in data set [6] (setting [12]); below 1 nM in data set [6] (setting [13]). Further, the figures for the IC50 in data set [6] (setting [14]), in data set [7] (setting [15]) and in data set [7] (setting [16]) were below 1 nM, below 2 nM and below 1 nM, respectively. Also, the “Dog liver microsomes; Fmax [%]” value is 55% in data set [3] (setting [11]) and 55% in data set [3] (dog liver microsomes, 1 μM). In addition, the “Rat liver microsomes; Fmax [%]” value is given as 93% in data set [4] (setting [11]) and 93% in data set [4] (rat liver microsomes, 1 μM). Besides, the “Human liver microsomes; Fmax [%]” value in data set [5] is reported as above 95%. The calculated maximal oral bioavailability (Fmax) at 1 μM in data set [5] is above 60%.
Take `COc1cc(C(=O)N2CCC2)ccc1Nc1nc2ccc(-c3ccc(NC(=O)[C@H](C)c4ccc(F)cc4)cc3)cn2n1` [Compound A4, (2R)-N-[4-(2-{[4-(azetidin-1-ylcarbonyl)-2-methoxyphenyl]amino}[1,2,4]-triazolo[1,5-α]pyridin-6-yl)phenyl]-2-(4-fluorophenyl)propanamide]: the IC50 in data set [1] (setting [8]) is below 100 nM; in data set [1] (setting [9]) it was below 100 nM; in data set [1] (setting [10]), below 400 nM; in data set [2], below 10000 nM; in data set [6] (setting [12]), at most 1 nM; in data set [6] (setting [13]) it was below 1 nM. Also, the IC50 in data set [6] (setting [14]) is below 1 nM; in data set [7] (setting [15]), below 2 nM; in data set [7] (setting [16]) it was below 1 nM. Moreover, the “Dog liver microsomes; Fmax [%]” value in data set [3] (setting [11]) is 75%; in data set [3] (dog liver microsomes, 1 μM), 75%. Besides, the “Rat liver microsomes; Fmax [%]” value in data set [4] (setting [11]) is 74%; in data set [4] (rat liver microsomes, 1 μM), 74%. Further, the “Human liver microsomes; Fmax [%]” value in data set [5] is 62%. Moreover, the calculated maximal oral bioavailability (Fmax) at 1 μM in data set [5] is above 60%.
Regarding `C[C@@H](C(=O)Nc1ccc(-c2ccc3nc(Nc4ccc(C(=O)N5CC(F)C5)cc4OCC(F)(F)F)nn3c2)cc1)c1ccc(F)cc1` [Compound A5, (2R)-N-{4-[2-({4-[(3-fluoroazetidin-1-yl)carbonyl]-2-(2,2,2-trifluoroethoxy)phenyl}amino)[1,2,4]triazolo[1,5-α]pyridin-6-yl]phenyl}-2-(4-fluorophenyl)propanamide], the IC50 in data set [1] (setting [8]) is below 100 nM; in data set [1] (setting [9]), below 100 nM; in data set [1] (setting [10]), below 400 nM; in data set [2], below 10000 nM; in data set [6] (setting [12]), at most 1 nM; in data set [6] (setting [13]), below 1 nM. Besides, the IC50 was below 1 nM in data set [6] (setting [14]), below 2 nM in data set [7] (setting [15]) and below 1 nM in data set [7] (setting [16]). The “Dog liver microsomes; Fmax [%]” value in data set [3] (setting [11]) is listed as 57%; in data set [3] (dog liver microsomes, 1 μM) it was 57%. Besides, the “Rat liver microsomes; Fmax [%]” value in data set [4] (setting [11]) is listed as 89%; in data set [4] (rat liver microsomes, 1 μM), 89%. For the same compound, the “Human liver microsomes; Fmax [%]” value in data set [5] was 69%. Further, the calculated maximal oral bioavailability (Fmax) at 1 μM in data set [5] is above 60%.
